Experimental data as given in PMC10600239, “Selective MCL-1 inhibitor ABBV-467 is efficacious in tumor models but is associated with cardiac troponin increases in patients” (Communications Medicine, 2023).

System: OPM-2 xenografts
Assay: OPM-2 xenograft efficacy (tumor volume, body weight)
Type: in vivo, mouse
Details: 6.25 mg/kg IV once weekly for 3 weeks
Description: All animal studies were conducted in accordance with the guidelines approved by the Institutional Animal Care and Use Committees of AbbVie. The research protocol was approved by In Vivo Pharmacology at AbbVie prior to study initiation but was not publicly registered or disclosed. Female C.B-17 SCID-beige mice (AMO-1, OPM-2, NCI-H929, and OCI-AML2 xenografts) and female NSG mice (MV4-11-Red.Fluc systemic) were purchased from Charles River Laboratories (Wilmington, MA). Animals were housed in a light cycle-controlled room with HEPA filtration at 22 °C. Animals had nesting and climbing cage topper as the primary environmental enrichment. Animals were inoculated subcutaneously in the right flank with 5 × 10^6 (AMO-1, OPM-2, NCI-H929, and OCI-AML2) or intravenous (IV) with 5 × 10^6 (MV4-11-Red.Fluc). The inoculation volume (0.2 mL) comprised a 50:50 mixture of cells in growth media and Matrigel (BD Biosciences) for subcutaneous injections and 100% phosphate-buffered saline for IV administration. All cell lines used in this publication were authenticated using IDEXX for STR profiling as well as their IMPACT and human IMPACT panels for pathogen screening. Electronic calipers were used to measure the length and width of each tumor 2 to 3 times per week. Tumor volume was estimated by applying the following equation: volume = length × width^2/2. All groups remained blinded during measurements and dosing; only veterinary staff were aware of group identity. When tumors reached approximately 200 mm^3, mice were randomized by match and distributed into treatment and control groups. All xenograft trials were conducted using 5 to 10 mice per group, and all mice were ear tagged and monitored individually throughout the studies. Any animal with a tumor above 2000 mm^3 or 15% loss in body weight was euthanized and removed from the study. Tumor burden in the systemic MV4-11-Red.Fluc experiment was measured using an IVIS® spectrum from PerkinElmer by taking the total photon flux of the entire dorsal side of an individual mouse. Ten minutes prior to imaging, animals received intraperitoneally 0.2 mL of a 15-mg/mL solution of D-Luciferin (PerkinElmer, Catalog #122799) formulated in 100% phosphate-buffered saline. Animals were anesthetized using 3.5% isoflurane and maintained using 2%. Six days after inoculation, animals were imaged and randomized into vehicle and treatment groups at a total flux of ~1 × 10^8. A background control mouse that was tumor naive but received D-Luciferin was placed in the upper left corner of each image. The total flux from this animal was subtracted from the total flux of each animal present in the image.
For in vivo studies, maximal tumor growth inhibition (TGI) was calculated as the greatest treatment response using the following equation: Maximal TGI = (1 − mean tumor volume of the treated group/mean tumor volume of the vehicle control group) × 100. The tumor growth delay (TGD) percentage was determined as the percentage increase of the median time period for the treatment group to reach an arbitrary tumor volume of 1000 mm^3 relative to the vehicle control group. […] A power analysis was conducted using historical data to determine the number of animals required to yield significance of 0.05 at a 30% difference. There were no animals excluded. Data from experiments in vivo were analyzed using the student’s t-test for TGI values and the Mann–Whitney U test for TGD using Excel and GraphPad Prism. Fisher’s exact test was used to probe significance of differences in response frequency.

Compound: Cc1c(Cl)c2c(Cl)c(C)c1-c1c(-c3ccc(F)cc3)sc3ncnc(c13)O[C@@H](C(=O)O)Cc1cc(ccc1OCc1ccnc(-c3ccc(OC[C@H]4COCCO4)cc3)n1)OC[C@@H](CN1CCN(C)CC1)O2 [ABBV-467]
- maximal TGD: 82%
